Laboratory results reported in paper PMC4970510 (Journal of Medicinal Chemistry, 2016).
pKi: −log10 of the molar value. “Also recorded” adds a separate entry of the source. One block for each compound: values may come before it.

Assays:
human A2BAR = details: at 1 mM, human fibroblasts; cited from earlier work
[1] = system: mouse chronic constriction injury (CCI) model; details: same dose (3 μmol/kg po); cited from earlier work
hA2AAR = hA2AAR (Homo sapiens, UniProt P29274); test: Radioligand binding at hA2AAR
hA3AR [2] = target: T1, hA3AR (Homo sapiens, UniProt P0DMS8); assay type: cell-based; details: relative to 1 at 10 μM, CHO cells
T1 sequence (P0DMS8 1-318): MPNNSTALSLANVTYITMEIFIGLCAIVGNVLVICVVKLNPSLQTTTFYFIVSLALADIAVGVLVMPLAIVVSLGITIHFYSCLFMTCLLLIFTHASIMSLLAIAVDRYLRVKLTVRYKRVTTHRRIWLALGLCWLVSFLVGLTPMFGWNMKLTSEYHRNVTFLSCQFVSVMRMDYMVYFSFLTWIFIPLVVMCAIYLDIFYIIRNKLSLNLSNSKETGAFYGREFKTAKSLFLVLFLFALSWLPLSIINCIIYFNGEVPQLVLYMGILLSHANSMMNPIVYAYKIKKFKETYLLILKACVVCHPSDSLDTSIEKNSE

hA1AR = target: T2, hA1AR (Homo sapiens, UniProt P30542); test: Radioligand binding at hA1AR
T2 sequence (P30542 1-326): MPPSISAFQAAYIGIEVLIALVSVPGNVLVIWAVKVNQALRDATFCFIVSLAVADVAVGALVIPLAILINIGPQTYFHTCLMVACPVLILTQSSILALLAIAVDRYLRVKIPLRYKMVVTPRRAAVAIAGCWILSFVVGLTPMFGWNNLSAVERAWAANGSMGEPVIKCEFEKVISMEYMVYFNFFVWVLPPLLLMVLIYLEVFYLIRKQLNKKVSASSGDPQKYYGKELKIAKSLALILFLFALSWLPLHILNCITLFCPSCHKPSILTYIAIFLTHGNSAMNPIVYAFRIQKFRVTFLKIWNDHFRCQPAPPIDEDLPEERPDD

[3] = system: mouse chronic constriction injury (CCI) model; test: Mouse chronic constriction injury; assay type: in vivo; details: po, 3 μmol/kg
[4] = PDSP broad off-target screen of receptors and channels; assay type: binding; details: PDSP screen of diverse receptors
[5] = target: human dopamine transporter (hDAT) (Homo sapiens, UniProt Q01959); test: PDSP radioligand binding at human dopamine transporter; details: at 10 μM, [3H] tropane radioligand
adenosine deaminase = details: cited from earlier work
[6] = system: canine coronary artery A2AAR; details: activation of canine coronary artery A2AAR; cited from earlier work
mA3AR = target: T3, mA3AR (Mus musculus, UniProt Q61618); assay type: cell-based; details: compared to reference full agonist 55
T3 sequence (Q61618 1-319): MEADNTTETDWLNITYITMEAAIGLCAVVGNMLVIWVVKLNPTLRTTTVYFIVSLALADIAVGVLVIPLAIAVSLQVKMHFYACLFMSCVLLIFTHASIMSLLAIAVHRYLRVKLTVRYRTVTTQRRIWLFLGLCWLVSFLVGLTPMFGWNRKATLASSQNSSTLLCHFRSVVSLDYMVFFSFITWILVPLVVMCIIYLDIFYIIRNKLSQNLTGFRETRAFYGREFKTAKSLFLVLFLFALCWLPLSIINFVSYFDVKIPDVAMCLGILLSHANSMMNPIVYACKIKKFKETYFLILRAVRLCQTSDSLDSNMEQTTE

hA3AR [7] = target: T1, hA3AR; test: Radioligand binding at hA3AR; details: ratio of hA3AR Ki

Chain of hA2AAR (P29274 whole entry): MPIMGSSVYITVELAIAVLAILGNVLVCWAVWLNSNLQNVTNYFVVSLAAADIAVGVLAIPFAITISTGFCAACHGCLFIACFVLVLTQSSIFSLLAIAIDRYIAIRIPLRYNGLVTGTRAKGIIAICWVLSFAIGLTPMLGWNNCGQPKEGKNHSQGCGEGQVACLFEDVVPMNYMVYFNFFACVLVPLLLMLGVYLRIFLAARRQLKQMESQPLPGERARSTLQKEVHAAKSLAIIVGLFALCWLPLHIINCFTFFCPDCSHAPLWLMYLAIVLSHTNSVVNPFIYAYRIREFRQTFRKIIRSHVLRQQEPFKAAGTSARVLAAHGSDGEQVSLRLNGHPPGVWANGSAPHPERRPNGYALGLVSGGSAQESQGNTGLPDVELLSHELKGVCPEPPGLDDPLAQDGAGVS
Chain of human dopamine transporter (hDAT) (Q01959 whole entry): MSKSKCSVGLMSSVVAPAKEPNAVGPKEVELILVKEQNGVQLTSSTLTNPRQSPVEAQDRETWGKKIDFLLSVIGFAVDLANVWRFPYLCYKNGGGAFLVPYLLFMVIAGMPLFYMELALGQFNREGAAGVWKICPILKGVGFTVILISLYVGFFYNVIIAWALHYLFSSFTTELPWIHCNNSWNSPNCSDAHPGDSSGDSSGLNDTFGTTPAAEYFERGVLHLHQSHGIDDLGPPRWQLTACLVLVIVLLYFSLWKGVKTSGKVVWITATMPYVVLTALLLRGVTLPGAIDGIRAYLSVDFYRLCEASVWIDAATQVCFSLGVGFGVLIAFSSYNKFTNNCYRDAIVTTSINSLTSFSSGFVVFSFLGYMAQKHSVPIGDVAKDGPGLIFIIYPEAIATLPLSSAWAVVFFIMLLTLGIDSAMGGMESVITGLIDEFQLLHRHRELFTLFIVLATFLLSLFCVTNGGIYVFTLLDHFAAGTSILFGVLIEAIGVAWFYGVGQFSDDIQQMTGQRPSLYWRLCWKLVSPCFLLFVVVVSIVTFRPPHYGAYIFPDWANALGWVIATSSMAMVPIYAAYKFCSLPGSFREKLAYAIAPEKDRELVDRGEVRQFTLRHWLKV

SMILES: Cc1ncnc2c1ncn2[C@@H]1O[C@H](CO)[C@@H](O)[C@H]1O [6-methylpurine-9-riboside]
- Efficacy relative to 10 μM adenosine (human A2BAR): 6%

SMILES: CNC(=O)[C@@]12C[C@@H]1[C@@H](n1cnc3c(NCc4cccc(Cl)c4)nc(C#Cc4ccc(F)c(F)c4)nc31)[C@H](O)[C@@H]2O [Compound 8]
- Protection against mechanoallodynia at 1 h [1]: 100%

SMILES: CNC(=O)[C@@]12C[C@@H]1[C@@H](n1cnc3c(C)nc(C#Cc4ccccc4)nc31)[C@H](O)[C@@H]2O [Compound 15]
- Reversal of mechanoallodynia (neuropathic pain) ([3]; day 7): efficacious in reducing pain
- Reversal of the pain ([3]; day 7): < 100%
- Off-target interactions [4]: no significant binding inhibition
- Enhancement of hDAT radioligand binding [5]: roughly 200%

SMILES: OC[C@H]1O[C@@H](n2cnc3cncnc32)[C@H](O)[C@@H]1O [Compound 56, purine-9-riboside]
- Efficacy relative to 10 μM adenosine (human A2BAR): 15%
- Adenosine deaminase inhibition (adenosine deaminase): weak inhibitor
- Fold less potent than adenosine [6]: 40 fold

SMILES: CNC(=O)[C@@]12C[C@@H]1[C@@H](n1cnc3c(/C=C(\O)c4ccccc4)nc(C#Cc4ccccc4)nc31)[C@H](O)[C@@H]2O [Compound 12, (1S,2R,3S,4R,5S)-2,3-Dihydroxy-4-(6-((Z)-2-hydroxy-2-phenylvinyl)-2-(phenylethynyl)-9H-purin-9-yl)-N-methylbicyclo[3.1.0]hexane-1-carboxamide]
- Reversal of mechanoallodynia (neuropathic pain) ([3]; day 7): efficacious in reducing pain
- Reversal of the pain ([3]; day 7): < 100%
- mA3AR agonist efficacy (mA3AR): full agonists
- Fold more potent at hA3AR than C2–Cl derivative 11b (hA3AR [7]): 15 fold

More lines, main results first:

- pKi (hA2AAR): < 5.00
- hA3AR agonist efficacy (hA3AR [2]): potent, full agonists
- pKi (hA1AR): < 5.00
SMILES: CNC(=O)[C@@]12C[C@@H]1[C@@H](n1cnc3c(C)nc(C#Cc4ccc(Cl)s4)nc31)[C@H](O)[C@@H]2O [Compound 19, (1S,2R,3S,4R,5S)-4-(2-((5-Chlorothiophen-2-yl)ethynyl)-6-methyl-9H-purin-9-yl)-2,3-dihydroxy-N-methylbicyclo[3.1.0]hexane-1-carboxamide]

- pKi (hA2AAR): < 5.00
- Off-target interactions [4]: no off-target interactions
- hA3AR agonist efficacy (hA3AR [2]): potent, full agonists
- pKi (hA1AR): < 5.00
SMILES: CNC(=O)[C@@]12C[C@@H]1[C@@H](n1cnc3cnc(C#Cc4ccc(Cl)s4)nc31)[C@H](O)[C@@H]2O [Compound 21, (1S,2R,3S,4R,5S)-4-(2-((5-Chlorothiophen-2-yl)ethynyl)-9H-purin-9-yl)-2,3-dihydroxy-N-methylbicyclo[3.1.0]hexane-1-carboxamide]
- Duration of action ([3]; day 7): at least 5 h
- Reversal of mechanoallodynia (neuropathic pain) ([3]; day 7): clearly more efficacious and longer lasting; also recorded: completely reversing mechanoallodynia
- Reversal of mechanoallodynia (neuropathic pain) ([3]; day 7, listed as MRS7220): completely reversed
